Patent US12370159B2, “Compositions and methods of use of beta-hydroxy-beta-methylbutyrate (HMB) and probiotics” (priority 2016, dated 2025)

Legend:
[1] = after HMB is fed; cited from earlier work
[2] = healthy young or old adults; cited from earlier work
[3] = HMB kinetics before and after two weeks of BC30 probiotic supplementation (Example 2)

Row | Molecule | Loss of HMB to urine [1] | Side effects [2] | Probiotic-induced increase in peak plasma HMB levels, CaHMB compared with HMB-FA [3]
1 | CC(C)(O)CC(=O)O [HMB, β-hydroxy-β-methylbutyric acid] | 20-50% | no side effects | 
2 | Calcium β-Hydroxy-β-Methylbutyrate [CaHMB] |  |  | larger
